From PubChem BioAssay AID1845203 (Molecular Pharmacology Branch, DTP, NCI, 2023)

Tested on: G-401 tumor spheroids, viability % test/control
Test: Anticancer human tumor G-401 cell line growth inhibition;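 also: spheroids exposed to compound for 7 days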;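 as to viability, T/C: 100% = DMSO vehicle-treated spheroids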
Settings: spheroids with HUVEC and MSC; for IC50: curve of first compound; for viability, T/C: stronger effect = lower value; active = viability on the fitted dose curve at most 10% of control; inactive = the rest
Outline: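 Complex tumor spheroids combined malignant cells with endothelial cells and mesenchymal stem cells. DNA-damaging drugs and DNA repair inhibitors were tested alone and in combination, at half-log dilutions down from clinical Cmax (top 10 microM if Cmax unknown), 0.25% DMSO final.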

[1] = second compound 0.003 µM, first compound 0.0316 µM
[2] = second compound 0.003 µM, first compound 0.1 µM
[3] = second compound 0.003 µM, first compound 0.316 µM
[4] = second compound 0.003 µM, first compound 1 µM
[5] = second compound 0.003 µM, first compound 3.16 µM
[6] = second compound 0.003 µM, first compound 10 µM
[7] = second compound 0.00949 µM, first compound 0.0316 µM
[8] = second compound 0.00949 µM, first compound 0.1 µM
[9] = second compound 0.00949 µM, first compound 0.316 µM
[10] = second compound 0.00949 µM, first compound 1 µM
[11] = second compound 0.00949 µM, first compound 3.16 µM
[12] = second compound 0.00949 µM, first compound 10 µM
[13] = second compound 0.03 µM, first compound 0.0316 µM
[14] = second compound 0.03 µM, first compound 0.1 µM
[15] = second compound 0.03 µM, first compound 0.316 µM
[16] = second compound 0.03 µM, first compound 1 µM
[17] = second compound 0.03 µM, first compound 3.16 µM
[18] = second compound 0.03 µM, first compound 10 µM
[19] = second compound 0.0949 µM, first compound 0.0316 µM
[20] = second compound 0.0949 µM, first compound 0.1 µM
[21] = second compound 0.0949 µM, first compound 0.316 µM
[22] = second compound 0.0949 µM, first compound 1 µM
[23] = second compound 0.0949 µM, first compound 3.16 µM
[24] = second compound 0.0949 µM, first compound 10 µM
[25] = second compound 0.3 µM, first compound 0.0316 µM
[26] = second compound 0.3 µM, first compound 0.1 µM
[27] = second compound 0.3 µM, first compound 0.316 µM
[28] = second compound 0.3 µM, first compound 1 µM
[29] = second compound 0.3 µM, first compound 3.16 µM
[30] = second compound 0.3 µM, first compound 10 µM

CC1COCCN1c1cc(-c2ccnn2C)c2ccnc(-c3ccn[nH]3)c2n1 (stereo not given) + CC[C@@]1(O)C(=O)OCc2c1cc1n(c2=O)Cc2cc3c(CN(C)C)c(O)ccc3nc2-1
active: viability, T/C [20] 8.92% | viability, T/C [21] 8.64% | viability, T/C [22] 8.17% | viability, T/C [23] 8.68% | viability, T/C [24] 9.11% | viability, T/C [25] 6.09% | viability, T/C [26] 5.5% | viability, T/C [27] 5.49% | viability, T/C [28] 4.45% | viability, T/C [29] 4.16% | viability, T/C [30] 3.75%
< 31.6 nM: IC50 (second compound 0.003 µM) | IC50 (second compound 0.00949 µM) | IC50 (second compound 0.03 µM) | IC50 (second compound 0.0949 µM) | IC50 (second compound 0.3 µM)
inactive: viability, T/C [1] 38.2% | viability, T/C [2] 17.3% | viability, T/C [3] 13.4% | viability, T/C [4] 13.5% | viability, T/C [5] 15% | viability, T/C [6] 15.1% | viability, T/C [7] 16.6% | viability, T/C [8] 11.1% | viability, T/C [9] 9.94% | viability, T/C [10] 10.2% | viability, T/C [11] 12.7% | viability, T/C [12] 14.6% | viability, T/C [13] 12.9% | viability, T/C [14] 11.1% | viability, T/C [15] 10.6% | viability, T/C [16] 10% | viability, T/C [17] 11.1% | viability, T/C [18] 12.1% | viability, T/C [19] 10.7%

COc1ccc([C@@H](O)c2cc(-c3ncnc4cc(N5CCOCC5)ccc34)c(F)cc2Cl)nn1 + Cn1nnc2c(C(N)=O)ncn2c1=O
1130 nM: IC50 (second compound 31.6 µM)
1260 nM: IC50 (second compound 10 µM)
1350 nM: IC50 (second compound 1 µM)
active: viability, T/C (second compound 1 µM, first compound 10 µM) 9.93% | viability, T/C (second compound 100 µM, first compound 10 µM) 8.51%
1020 nM: IC50 (second compound 100 µM)
inactive: viability, T/C (second compound 1 µM, first compound 0.0316 µM) 103% | viability, T/C (second compound 1 µM, first compound 0.1 µM) 95.7% | viability, T/C (second compound 1 µM, first compound 0.316 µM) 88.1% | viability, T/C (second compound 1 µM, first compound 1 µM) 60.9% | viability, T/C (second compound 1 µM, first compound 3.16 µM) 21.9% | viability, T/C (second compound 3.16 µM, first compound 0.0316 µM) 96.6% | viability, T/C (second compound 3.16 µM, first compound 0.1 µM) 90.8% | viability, T/C (second compound 3.16 µM, first compound 0.316 µM) 91.4% | viability, T/C (second compound 3.16 µM, first compound 1 µM) 46.3% | viability, T/C (second compound 3.16 µM, first compound 3.16 µM) 20.6% | viability, T/C (second compound 3.16 µM, first compound 10 µM) 10.6% | viability, T/C (second compound 10 µM, first compound 0.0316 µM) 105% | viability, T/C (second compound 10 µM, first compound 0.1 µM) 96.1% | viability, T/C (second compound 10 µM, first compound 0.316 µM) 90% | viability, T/C (second compound 10 µM, first compound 1 µM) 57.8% | viability, T/C (second compound 10 µM, first compound 3.16 µM) 20.9% | viability, T/C (second compound 10 µM, first compound 10 µM) 10.8% | viability, T/C (second compound 31.6 µM, first compound 0.0316 µM) 90.9% | viability, T/C (second compound 31.6 µM, first compound 0.1 µM) 88.8% | viability, T/C (second compound 31.6 µM, first compound 0.316 µM) 85.1% | viability, T/C (second compound 31.6 µM, first compound 1 µM) 52% | viability, T/C (second compound 31.6 µM, first compound 3.16 µM) 22.5% | viability, T/C (second compound 31.6 µM, first compound 10 µM) 10.8% | viability, T/C (second compound 100 µM, first compound 0.0316 µM) 89.5% | viability, T/C (second compound 100 µM, first compound 0.1 µM) 87.4% | viability, T/C (second compound 100 µM, first compound 0.316 µM) 82.9% | viability, T/C (second compound 100 µM, first compound 1 µM) 49.5% | viability, T/C (second compound 100 µM, first compound 3.16 µM) 19.1%
932 nM: IC50 (second compound 3.16 µM)

COc1ccc([C@@H](O)c2cc(-c3ncnc4cc(N5CCOCC5)ccc34)c(F)cc2Cl)nn1 + CC[C@@]1(O)C(=O)OCc2c1cc1n(c2=O)Cc2cc3c(CN(C)C)c(O)ccc3nc2-1
< 31.6 nM: IC50 (second compound 0.00949 µM) | IC50 (second compound 0.03 µM) | IC50 (second compound 0.0949 µM) | IC50 (second compound 0.3 µM)
inactive: viability, T/C [1] 84.4% | viability, T/C [2] 84.2% | viability, T/C [3] 66.6% | viability, T/C [4] 48.3% | viability, T/C [5] 23.6% | viability, T/C [7] 43.5% | viability, T/C [8] 41.3% | viability, T/C [9] 40.5% | viability, T/C [10] 26.8% | viability, T/C [11] 11.7% | viability, T/C [13] 16.9% | viability, T/C [14] 15.9% | viability, T/C [15] 11.2%
864 nM: IC50 (second compound 0.003 µM)
active: viability, T/C [6] 9.59% | viability, T/C [12] 5.69% | viability, T/C [16] 8.51% | viability, T/C [17] 5.48% | viability, T/C [18] 3.09% | viability, T/C [19] 7.39% | viability, T/C [20] 7.68% | viability, T/C [21] 6.35% | viability, T/C [22] 5.25% | viability, T/C [23] 3.31% | viability, T/C [24] 1.7% | viability, T/C [25] 4.49% | viability, T/C [26] 4.63% | viability, T/C [27] 3.66% | viability, T/C [28] 2.59% | viability, T/C [29] 0.94% | viability, T/C [30] 0.33%
